Test results from paper PMC5762338, “A novel orally available Syk/Src/Jak2 inhibitor, SKLB-850, showed potent anti-tumor activities in B cell lymphoma (BCL) models” (Oncotarget, 2017).
“And” between values parts separate entries of the source, which are not always exact repeats. Equal values may be shown once.

Legend:
Ramos cells = assay: Chemotaxis assay toward CXCL12 (transwell); format: cell-based, Human; conditions: CXCL12 200ng/mL, 12 hours
Method: And BCL cells could migrate toward the chemokine CXCL12 upon activation of its receptor CD184 [27].
Chemotaxis assay was performed as previously described. Briefly, 1×10^6 Ramos cells were cultured in RPMI 1640 containing 0.5% bovine serum albumin and were pre-incubated for 30 minutes with SKLB-850, R788 or DMSO, and then they were added to the inserts of transwell chambers (5μm poresize; Corning). Inserts were then transferred into wells containing CXCL12 (200ng/mL). After 12 hours, cell count was determined for the upper and lower well in duplicates using a flow cytometer (Novocyte Technologies, China). Chemotaxis indices were calculated as: [number of cells in the lower chamber×100] / [number of cells in the lower and upper chambers]. The chemotaxis index with SKLB-850 was calculated as percentage of the DMSO index.

MDA-MB-231 = assay: MTT anti-viability assay; format: cell-based; conditions: MDA-MB-231, Human breast cancer cell, 72 hours
Method: (§1) In vitro anti-viability activities of SKLB-850 against various tumor cell lines were measured using the MTT method.
(§2) Human cancer cell lines Ramos-ZHL, HBL-1, SuDHL-6, LY-10, LY-1, RAJI, MDA-MB-231, SW1990, SMMC7721, MCF-7, CFPAC-1, HPAC, A549 and H358 were obtained from American Type Culture Collection (ATCC). All tumor cell lines were maintained according to the ATCC procedures and passaged for less than 6 months after receipt for resuscitation. These cells were cultured in RPMI-1640 supplemented with 10% fetal bovine serum (FBS).
(§3) Cell proliferation was measured using the MTT assay as previously described. Various cells including were treated with indicated concentrations of SKLB-850 for 72 hours. R788 (Selleck.cn) was served as a positive control. Each assay was replicated 3 times.

H358 = assay: MTT anti-viability assay; format: cell-based; conditions: 72 hours
Method: as §1, §2, §3

Ramos-ZHL = assay: MTT anti-viability assay; format: cell-based; conditions: Human B cell lymphoma, 72 hours
Method: as §1, §2, §3

LY-1 = assay: MTT anti-viability assay; format: cell-based; conditions: Ly1, LY-1, Human diffuse large B cell lymphoma, 72 hours
Method: as §1, §2, §3

MCF-7 = assay: MTT anti-viability assay; format: cell-based; conditions: MCF7, MCF-7, Human breast cancer cell, 72 hours
Method: as §1, §2, §3

LY-10 = assay: MTT anti-viability assay; format: cell-based; conditions: LY10, LY-10, Human diffuse large B cell lymphoma, 72 hours
Method: as §1, §2, §3

SuDHL-6 = assay: MTT anti-viability assay; format: cell-based; conditions: SU-DHL-6, SuDHL-6, Human follicular B cell lymphoma, 72 hours
Method: as §1, §2, §3

mTOR = molecular target: T1, mTOR (Homo sapiens, UniProt P42345); assay: Kinase inhibition, 33P radiometric assay (Millipore Kinase Profiler); format: biochemical
T1 construct: purchased Millipore (Kinase Profiler service)
Method: (§4) Kinase inhibitory potency of SKLB-850 against a number of selected kinases were measured with gold-standard^33 P radio-labeled technology. […] For the remaining 11 kinases tested, SKLB-850 exibited very weak or no activity (IC50 > 10 μM).
(§5) The IC50 values of SKLB-850 for kinase inhibition in vitro were measured by radiometric assays conducted by Kinase Profiler service provided by Millipore as described in Pan’s study.

PKCα = molecular target: T2, PKCα (Homo sapiens, UniProt P17252); assay: as above; format: biochemical
T2 construct: purchased Millipore (Kinase Profiler service)
Method: as §4, §5

GSK3β = molecular target: T3, GSK3β (Homo sapiens, UniProt P49841); assay: as above; format: biochemical
T3 construct: purchased Millipore (Kinase Profiler service)
Method: as §4, §5

GSK3α = molecular target: T4, GSK3α (Homo sapiens, UniProt P49840); assay: as above; format: biochemical
T4 construct: purchased Millipore (Kinase Profiler service)
Method: as §4, §5

Pim-1 = molecular target: T5, Pim-1 (Homo sapiens, UniProt P11309); assay: as above; format: biochemical
T5 construct: purchased Millipore (Kinase Profiler service)
Method: as §4, §5

Pim-2 = molecular target: T6, Pim-2 (Homo sapiens, UniProt Q9P1W9); assay: as above; format: biochemical
T6 construct: purchased Millipore (Kinase Profiler service)
Method: as §4, §5

GRK1 = molecular target: T7, GRK1 (Homo sapiens, UniProt Q15835); assay: as above; format: biochemical
T7 construct: purchased Millipore (Kinase Profiler service)
Method: as §4, §5

EphB3 = molecular target: T8, EphB3 (Homo sapiens, UniProt P54753); assay: as above; format: biochemical
T8 construct: purchased Millipore (Kinase Profiler service)
Method: as §4, §5

CDK3 = molecular target: T9, CDK3 (Homo sapiens, UniProt Q00526); assay: as above; format: biochemical
T9 construct: purchased Millipore (Kinase Profiler service)
Method: as §4, §5

EGRF = molecular target: T10, EGRF (Homo sapiens, UniProt P00533); assay: as above; format: biochemical; conditions: EGRF (text: EGFR)
T10 construct: purchased Millipore (Kinase Profiler service)
Method: as §4, §5

JAK2 = molecular target: T11, JAK2 (Homo sapiens, UniProt O60674); assay: as above; format: biochemical
T11 construct: purchased Millipore (Kinase Profiler service)
Method: as §4, §5

MKK4 = molecular target: T12, MKK4 (Mus musculus, UniProt P47809); assay: as above; format: biochemical
T12 construct: purchased Millipore (Kinase Profiler service)
Method: as §4, §5

FAK = molecular target: T13, FAK (Homo sapiens, UniProt Q05397); assay: as above; format: biochemical
T13 construct: purchased Millipore (Kinase Profiler service)
Method: as §4, §5

PIP4K2α = molecular target: T14, PIP4K2α (Homo sapiens, UniProt P48426); assay: as above; format: biochemical
T14 construct: purchased Millipore (Kinase Profiler service)
Method: as §4, §5

PKBα = molecular target: T15, PKBα (Homo sapiens, UniProt P31749); assay: as above; format: biochemical
T15 construct: purchased Millipore (Kinase Profiler service)
Method: as §4, §5

Syk = molecular target: T16, Syk (Homo sapiens, UniProt P43405); assay: as above; format: biochemical
T16 construct: purchased Millipore (Kinase Profiler service)
Method: as §4, §5

Src = molecular target: T17, Src (Homo sapiens, UniProt P12931); assay: as above; format: biochemical
T17 construct: purchased Millipore (Kinase Profiler service)
Method: as §4, §5

T10 sequence (P00533 25-1210): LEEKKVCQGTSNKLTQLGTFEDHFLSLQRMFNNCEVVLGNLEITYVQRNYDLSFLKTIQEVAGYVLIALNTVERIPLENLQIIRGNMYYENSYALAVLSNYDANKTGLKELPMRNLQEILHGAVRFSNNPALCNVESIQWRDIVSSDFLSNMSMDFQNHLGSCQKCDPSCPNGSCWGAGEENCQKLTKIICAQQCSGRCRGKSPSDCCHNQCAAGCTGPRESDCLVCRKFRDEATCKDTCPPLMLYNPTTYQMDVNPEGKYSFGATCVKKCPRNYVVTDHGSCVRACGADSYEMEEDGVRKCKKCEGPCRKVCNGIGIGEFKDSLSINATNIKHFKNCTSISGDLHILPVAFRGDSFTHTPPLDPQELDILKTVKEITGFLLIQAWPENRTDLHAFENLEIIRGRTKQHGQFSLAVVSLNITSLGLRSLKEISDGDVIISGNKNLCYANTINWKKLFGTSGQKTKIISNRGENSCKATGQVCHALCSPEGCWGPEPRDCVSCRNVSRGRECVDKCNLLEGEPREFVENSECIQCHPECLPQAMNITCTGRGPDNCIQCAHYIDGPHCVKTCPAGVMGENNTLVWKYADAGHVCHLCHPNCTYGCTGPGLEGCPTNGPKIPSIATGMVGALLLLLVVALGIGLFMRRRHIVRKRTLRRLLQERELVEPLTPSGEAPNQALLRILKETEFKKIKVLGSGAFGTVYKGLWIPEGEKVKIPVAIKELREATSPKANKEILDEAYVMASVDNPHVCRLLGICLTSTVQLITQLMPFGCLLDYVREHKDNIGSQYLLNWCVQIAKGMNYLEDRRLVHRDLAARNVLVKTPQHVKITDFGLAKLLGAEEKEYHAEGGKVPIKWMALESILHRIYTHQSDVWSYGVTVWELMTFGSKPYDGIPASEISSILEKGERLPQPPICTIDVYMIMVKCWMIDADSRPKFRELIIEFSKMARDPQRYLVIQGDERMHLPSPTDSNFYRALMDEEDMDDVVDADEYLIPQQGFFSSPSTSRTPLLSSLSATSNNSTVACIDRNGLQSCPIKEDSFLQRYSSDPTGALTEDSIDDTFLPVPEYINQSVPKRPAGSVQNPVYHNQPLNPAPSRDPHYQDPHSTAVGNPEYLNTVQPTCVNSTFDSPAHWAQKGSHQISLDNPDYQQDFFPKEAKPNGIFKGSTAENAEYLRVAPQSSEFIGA
T15 sequence (P31749 whole entry): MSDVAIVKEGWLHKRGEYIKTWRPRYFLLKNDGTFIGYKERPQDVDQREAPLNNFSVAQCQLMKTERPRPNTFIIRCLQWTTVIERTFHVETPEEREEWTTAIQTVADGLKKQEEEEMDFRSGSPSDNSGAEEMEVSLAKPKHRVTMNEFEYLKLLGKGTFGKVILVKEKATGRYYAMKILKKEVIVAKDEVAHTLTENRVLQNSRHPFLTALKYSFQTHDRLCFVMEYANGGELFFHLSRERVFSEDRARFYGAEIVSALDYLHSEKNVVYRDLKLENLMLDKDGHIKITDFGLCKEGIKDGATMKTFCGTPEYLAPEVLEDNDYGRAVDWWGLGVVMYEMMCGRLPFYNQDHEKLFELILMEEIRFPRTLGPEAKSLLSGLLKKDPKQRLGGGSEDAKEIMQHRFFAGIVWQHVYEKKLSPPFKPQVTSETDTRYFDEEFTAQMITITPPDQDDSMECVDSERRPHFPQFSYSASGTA
T8 sequence (P54753 34-998): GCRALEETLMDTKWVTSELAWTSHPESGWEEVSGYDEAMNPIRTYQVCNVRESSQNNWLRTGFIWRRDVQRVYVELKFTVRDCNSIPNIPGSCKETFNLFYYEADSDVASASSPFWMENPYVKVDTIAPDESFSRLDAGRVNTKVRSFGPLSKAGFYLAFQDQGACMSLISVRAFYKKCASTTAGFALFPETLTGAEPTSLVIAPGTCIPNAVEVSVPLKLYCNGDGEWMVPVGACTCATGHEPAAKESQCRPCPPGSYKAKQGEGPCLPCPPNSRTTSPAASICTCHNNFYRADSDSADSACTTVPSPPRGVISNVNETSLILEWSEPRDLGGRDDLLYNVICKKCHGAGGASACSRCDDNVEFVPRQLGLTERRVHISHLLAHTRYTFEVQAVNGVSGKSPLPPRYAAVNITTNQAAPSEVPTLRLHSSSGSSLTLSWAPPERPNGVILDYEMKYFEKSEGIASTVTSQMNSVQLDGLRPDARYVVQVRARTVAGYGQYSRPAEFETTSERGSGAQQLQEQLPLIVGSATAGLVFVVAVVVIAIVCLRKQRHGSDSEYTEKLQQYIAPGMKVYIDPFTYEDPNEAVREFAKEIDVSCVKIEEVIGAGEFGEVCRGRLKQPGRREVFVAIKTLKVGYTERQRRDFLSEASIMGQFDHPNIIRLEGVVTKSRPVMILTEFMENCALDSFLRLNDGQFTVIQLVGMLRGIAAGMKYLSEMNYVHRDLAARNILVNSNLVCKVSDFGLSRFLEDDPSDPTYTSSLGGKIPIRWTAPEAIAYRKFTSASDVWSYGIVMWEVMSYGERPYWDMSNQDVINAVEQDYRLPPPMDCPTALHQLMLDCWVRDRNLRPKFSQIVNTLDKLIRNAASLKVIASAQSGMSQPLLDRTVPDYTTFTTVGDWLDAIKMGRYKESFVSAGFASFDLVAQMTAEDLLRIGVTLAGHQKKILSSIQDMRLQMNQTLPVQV
T17 sequence (P12931 whole entry): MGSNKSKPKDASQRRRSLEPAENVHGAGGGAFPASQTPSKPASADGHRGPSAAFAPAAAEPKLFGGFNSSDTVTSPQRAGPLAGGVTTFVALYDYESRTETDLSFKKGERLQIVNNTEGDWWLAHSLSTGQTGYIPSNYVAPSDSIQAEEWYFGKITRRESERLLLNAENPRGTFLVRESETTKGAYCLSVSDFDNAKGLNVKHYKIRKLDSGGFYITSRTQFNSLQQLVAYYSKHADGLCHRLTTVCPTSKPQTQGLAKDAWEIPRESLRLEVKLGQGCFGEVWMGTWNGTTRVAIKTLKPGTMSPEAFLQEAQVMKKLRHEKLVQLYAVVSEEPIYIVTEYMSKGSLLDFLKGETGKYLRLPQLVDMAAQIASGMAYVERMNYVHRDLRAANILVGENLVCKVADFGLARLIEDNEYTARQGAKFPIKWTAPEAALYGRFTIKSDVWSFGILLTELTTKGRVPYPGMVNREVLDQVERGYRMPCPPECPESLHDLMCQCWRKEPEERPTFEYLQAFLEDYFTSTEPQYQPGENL
T14 sequence (P48426 whole entry): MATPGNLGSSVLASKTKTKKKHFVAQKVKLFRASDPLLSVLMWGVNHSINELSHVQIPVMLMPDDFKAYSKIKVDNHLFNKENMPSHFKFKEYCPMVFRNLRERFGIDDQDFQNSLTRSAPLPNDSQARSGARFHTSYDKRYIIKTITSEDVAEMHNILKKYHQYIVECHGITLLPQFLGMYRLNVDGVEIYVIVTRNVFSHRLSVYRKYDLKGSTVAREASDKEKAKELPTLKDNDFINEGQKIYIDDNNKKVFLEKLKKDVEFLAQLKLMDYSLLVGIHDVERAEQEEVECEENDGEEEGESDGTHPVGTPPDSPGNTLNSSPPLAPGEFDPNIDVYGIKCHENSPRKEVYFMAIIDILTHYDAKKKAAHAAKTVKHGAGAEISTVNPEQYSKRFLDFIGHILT
T5 sequence (P11309 whole entry): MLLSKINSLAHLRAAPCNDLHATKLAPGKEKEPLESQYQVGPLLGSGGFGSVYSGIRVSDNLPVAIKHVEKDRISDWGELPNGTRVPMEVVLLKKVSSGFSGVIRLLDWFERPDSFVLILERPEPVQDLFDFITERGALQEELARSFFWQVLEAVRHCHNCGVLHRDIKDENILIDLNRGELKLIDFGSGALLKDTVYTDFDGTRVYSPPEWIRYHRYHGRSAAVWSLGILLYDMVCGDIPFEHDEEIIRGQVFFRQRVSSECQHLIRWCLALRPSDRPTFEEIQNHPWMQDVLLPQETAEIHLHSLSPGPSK
T12 sequence (P47809 2-397 limits assumed): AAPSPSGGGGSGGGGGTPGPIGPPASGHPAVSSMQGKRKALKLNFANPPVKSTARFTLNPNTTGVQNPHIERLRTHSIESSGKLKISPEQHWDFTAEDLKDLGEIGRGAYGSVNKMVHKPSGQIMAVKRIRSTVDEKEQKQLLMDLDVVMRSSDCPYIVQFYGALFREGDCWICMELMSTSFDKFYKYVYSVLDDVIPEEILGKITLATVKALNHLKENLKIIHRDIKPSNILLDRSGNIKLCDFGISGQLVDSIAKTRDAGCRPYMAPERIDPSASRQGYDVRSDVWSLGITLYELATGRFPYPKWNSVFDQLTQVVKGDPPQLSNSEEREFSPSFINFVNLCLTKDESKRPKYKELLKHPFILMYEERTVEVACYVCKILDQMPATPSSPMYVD

**Q.** What does the source list for `CN1CCN(c2ccc(Nc3ncc(F)c(Nc4ccc(Cl)cc4C(N)=O)n3)cc2)CC1` [SKLB-850, 5-chloro-2-((5-fluoro-2-((4-(4-methylpiperazin-1-yl)phenyl)amino)pyrimidin-4-yl)amino) benzamide]?
**A.** Ramos cell chemotaxis toward CXCL12 (in words) (Ramos cells): reduced the percentage of Ramos cell chemotaxis toward CXCL12; IC50 (MDA-MB-231): 2190 nM; IC50 anti-viability (H358; H358, Human non-small cell lung cancer cells): did not exhibit activity; IC50 (H358; NCI-H358, H358, Human non-small cell lung cancer cells): > 20 µM; IC50 (Ramos-ZHL): 30 nM; IC50 (LY-1): 1600 nM; IC50 (MCF-7): 7.23 µM; IC50 (LY-10): 900 nM; IC50 (SuDHL-6): 900 nM; IC50 (mTOR): > 10 µM; IC50 (PKCα): > 10 µM; IC50 (GSK3β): > 10 µM; IC50 (GSK3α): > 10 µM; IC50 (Pim-1): > 10 µM; IC50 (Pim-2): > 10 µM; IC50 (GRK1): > 10 µM; IC50 (EphB3): > 10 µM; IC50 (CDK3): > 10 µM; IC50 (EGRF): 260 nM and 255 nM; IC50 (JAK2): 47 nM; IC50 (MKK4): > 10 µM; IC50 (FAK): 390 nM; IC50 (PIP4K2α): > 10 µM; IC50 (PKBα): 3.18 µM; IC50 (Syk): 41 nM; IC50 (Src): 25 nM
